Results as given in US20200392158A1, “INHIBITORS OF LEUCINE RICH REPEAT KINASE 2” (GLAXOSMITHKLINE INTELLECTUAL PROPERTY DEVELOPMENT LIMITED, priority 2017, published 2020).

target: T1, full length G2019 human LRRK2 (Homo sapiens, UniProt Q5S007, R50H); assay: Full length G2019 human LRRK2 inhibition mass spectrometry assay; assay type: biochemical; conditions: LRRKtide to phospho-LRRKtide conversion, RapidFire MS, 2 mM ATP
T1 construct: made in house; host or cells: HEK293 6E cells transduced with BacMam virus (virus generated in Sf9 cells)
Summary of the method: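 Purified full-length Flag-tagged G2019 LRRK2, ~25 nM, with 25 μM LRRKtide and 2 mM ATP in 50 mM Hepes pH 7.2, 10 mM MgCl2, 150 mM NaCl, 1 h at room temperature. Quenched with formic acid; phospho- and unphosphorylated LRRKtide measured by RapidFire MS. pIC50 from 4-parameter fit of % conversion, 11 points, top 100 μM.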

T1 sequence (Q5S007 with tags, fused parts or gaps R50H): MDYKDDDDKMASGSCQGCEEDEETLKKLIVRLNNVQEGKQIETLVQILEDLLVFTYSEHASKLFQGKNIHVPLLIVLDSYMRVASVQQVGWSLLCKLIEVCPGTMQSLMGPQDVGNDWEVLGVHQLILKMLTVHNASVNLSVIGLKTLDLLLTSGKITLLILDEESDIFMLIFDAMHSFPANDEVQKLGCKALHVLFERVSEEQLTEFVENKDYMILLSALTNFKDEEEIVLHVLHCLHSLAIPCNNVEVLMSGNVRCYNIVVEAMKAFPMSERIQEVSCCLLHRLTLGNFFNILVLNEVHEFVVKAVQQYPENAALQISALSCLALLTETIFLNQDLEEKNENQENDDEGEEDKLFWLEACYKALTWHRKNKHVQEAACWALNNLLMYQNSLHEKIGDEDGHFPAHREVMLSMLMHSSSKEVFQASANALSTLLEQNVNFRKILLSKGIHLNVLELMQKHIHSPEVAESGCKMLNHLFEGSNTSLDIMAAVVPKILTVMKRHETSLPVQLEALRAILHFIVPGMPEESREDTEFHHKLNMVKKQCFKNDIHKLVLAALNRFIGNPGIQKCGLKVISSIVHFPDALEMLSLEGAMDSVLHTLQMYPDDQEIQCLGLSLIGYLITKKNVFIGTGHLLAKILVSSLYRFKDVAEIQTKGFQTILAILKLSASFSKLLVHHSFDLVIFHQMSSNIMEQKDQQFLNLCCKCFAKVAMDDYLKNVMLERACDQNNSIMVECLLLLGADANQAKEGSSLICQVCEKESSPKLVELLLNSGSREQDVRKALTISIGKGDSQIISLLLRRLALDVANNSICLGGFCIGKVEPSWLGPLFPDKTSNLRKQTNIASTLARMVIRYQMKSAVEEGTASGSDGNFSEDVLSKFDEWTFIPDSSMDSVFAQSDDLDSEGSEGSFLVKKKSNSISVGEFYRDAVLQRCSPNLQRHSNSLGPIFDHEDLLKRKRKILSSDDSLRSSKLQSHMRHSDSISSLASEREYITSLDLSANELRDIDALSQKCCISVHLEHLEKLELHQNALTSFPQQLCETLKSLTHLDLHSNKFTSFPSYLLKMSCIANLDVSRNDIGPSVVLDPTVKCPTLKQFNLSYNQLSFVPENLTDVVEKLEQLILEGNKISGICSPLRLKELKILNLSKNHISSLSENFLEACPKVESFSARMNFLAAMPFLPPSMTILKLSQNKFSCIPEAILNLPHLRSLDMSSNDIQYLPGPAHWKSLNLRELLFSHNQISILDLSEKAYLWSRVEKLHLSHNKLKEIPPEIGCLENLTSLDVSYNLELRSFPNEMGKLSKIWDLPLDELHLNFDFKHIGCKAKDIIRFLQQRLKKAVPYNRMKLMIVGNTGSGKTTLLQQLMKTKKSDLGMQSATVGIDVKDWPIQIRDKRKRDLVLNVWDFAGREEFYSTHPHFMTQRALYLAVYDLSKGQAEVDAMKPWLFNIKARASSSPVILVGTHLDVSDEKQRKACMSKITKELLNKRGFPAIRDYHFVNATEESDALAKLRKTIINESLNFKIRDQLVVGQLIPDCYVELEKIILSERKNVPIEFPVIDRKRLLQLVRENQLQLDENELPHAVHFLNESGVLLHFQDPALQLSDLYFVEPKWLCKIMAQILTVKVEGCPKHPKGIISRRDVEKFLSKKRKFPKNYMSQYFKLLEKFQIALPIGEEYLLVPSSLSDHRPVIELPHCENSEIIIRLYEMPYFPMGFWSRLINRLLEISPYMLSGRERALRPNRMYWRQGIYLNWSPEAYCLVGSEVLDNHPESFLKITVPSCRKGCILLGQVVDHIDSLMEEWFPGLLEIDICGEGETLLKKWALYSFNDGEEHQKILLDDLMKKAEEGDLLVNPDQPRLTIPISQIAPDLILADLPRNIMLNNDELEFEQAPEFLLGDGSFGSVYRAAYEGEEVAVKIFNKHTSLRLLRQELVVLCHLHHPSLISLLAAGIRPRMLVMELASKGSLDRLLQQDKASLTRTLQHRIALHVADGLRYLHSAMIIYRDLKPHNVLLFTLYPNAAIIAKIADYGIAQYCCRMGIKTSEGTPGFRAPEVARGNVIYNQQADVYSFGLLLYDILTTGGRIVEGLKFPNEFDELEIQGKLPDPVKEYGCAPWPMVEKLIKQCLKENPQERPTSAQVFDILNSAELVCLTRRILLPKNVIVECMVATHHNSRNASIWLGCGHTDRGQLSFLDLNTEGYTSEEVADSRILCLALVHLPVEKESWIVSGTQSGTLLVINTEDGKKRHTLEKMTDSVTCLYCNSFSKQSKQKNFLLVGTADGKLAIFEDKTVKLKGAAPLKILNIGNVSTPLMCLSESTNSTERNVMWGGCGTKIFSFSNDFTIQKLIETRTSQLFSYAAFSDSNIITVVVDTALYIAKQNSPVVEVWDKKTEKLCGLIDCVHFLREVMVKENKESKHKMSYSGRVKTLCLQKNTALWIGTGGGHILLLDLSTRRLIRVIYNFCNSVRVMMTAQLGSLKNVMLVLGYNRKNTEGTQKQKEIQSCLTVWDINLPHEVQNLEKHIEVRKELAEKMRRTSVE

IC50 [nM]	Compound
≤ 100	Cc1c2c(nn1C1CCOC(C)C1)OCCCNc1nc(ncc1Cl)N2 (single isomer, unassigned) [E203, 14-Chloro-4-methyl-5-(2-methyloxan-4-yl)-8-oxa-2,5,6,12,16,17-hexaazatricyclo[11.3.1.0^3,7]heptadeca-1(16),3,6,13(17),14-pentaene]
≤ 100	Cc1c2c(nn1C1CCCOC1)OCC(C)CNc1nc(ncc1Cl)N2 (single isomer, unassigned) [E307, 14-Chloro-4,10-dimethyl-5-(oxan-3-yl)-8-oxa-2,5,6,12,16,17-hexaazatricyclo[11.3.1.0^3,7]heptadeca-1(16),3,6, 13(17),14-pentaene]
≤ 10000	Cc1c2c(nn1C(C)(C)C#N)OCCC(C)Nc1nc(ncc1Cl)N2 (single isomer, unassigned) [E43, 2-{14-chloro-4,11-dimethyl-8-oxa-2,5,6,12,16,17-hexaazatricyclo [11.3.1.0^3,7]heptadeca-1(16),3,6,13(17),14-pentaen-5-yl}-2-methylpropanenitrile]
≤ 100	Cc1c2c(nn1C1CCOCC1C)OCCCNc1nc(ncc1Cl)N2 (single isomer, unassigned) [E140, 14-chloro-4-methyl-5-(3-methyloxan-4-yl)-8-oxa-2,5,6,12,16,17-hexaazatricyclo[11.3.1.0^3,7]heptadeca-1(16),3,6,13(17),14-pentaene]
≤ 100	COCCN1CCC(n2nc3c(c2C)Nc2ncc(Cl)c(n2)NCCCO3)C(F)C1 (single isomer, unassigned) [E60, trans-14-chloro-5-[3-fluoro-1-(2-methoxyethyl)piperidin-4-yl]-4-methyl-8-oxa-2,5,6,12,16,17-hexaazatricyclo[11.3.1.0^3,7]heptadeca 1(16),3,6,13(17),14-pentaene]
≤ 100	Cc1c2c(nn1C1CCOCC1)OCC(C)CNc1nc(ncc1Cl)N2 (single isomer, unassigned) [E137, 14-chloro-4,10-dimethyl-5-(oxan-4-yl)-8-oxa-2,5,6,12,16,17-hexaazatricyclo[11.3.1.0^3,7]heptadeca-1(16),3,6,13(17),14-pentaene]
≤ 10000	Cc1c2c(nn1C1CCC(C)CC1)OCCC(C)Nc1nc(ncc1Cl)N2 (single isomer, unassigned) [E262, 14-Chloro-4,11-dimethyl-5-(4-methylcyclohexyl)-8-oxa-2,5,6,12,16,17-hexaazatricyclo[11.3.1.0^3,7] heptadeca-1(16),3,6,13(17),14-pentaene]
≤ 10000	Cc1c2c(nn1C1CCOCC1)OCCC(C)Nc1nc(ncc1Br)N2 (single isomer, unassigned) [E29, 14-bromo-4,11-dimethyl-5-(oxan-4-yl)-8-oxa-2,5,6,12,16,17-hexaaza tricyclo[11.3.1.0^3,7]heptadeca-1(16),3,6,13(17),14-pentaene]
≤ 10000	Cc1c2c(nn1CC(C)(C)O)OCCC(C)Nc1nc(ncc1Cl)N2 (single isomer, unassigned) [E264, 1-{14-Chloro-4,11-dimethyl-8-oxa-2,5,6,12,16,17-hexaazatricyclo[11.3.1.0^3,7]heptadeca-1(17),3,6,13,15-pentaen-5-yl}-2-methylpropan-2-ol]
≤ 100	COCC1CCOc2nn(C3CCOCC3F)c(C)c2Nc2ncc(Cl)c(n2)N1 (single isomer, unassigned) [E357, 14-Chloro-5-(3-fluorooxan-4-yl)-11-(methoxymethyl)-4-methyl-8-oxa-2,5,6,12,16,17-hexaazatricyclo [11.3. 1.0^3,7]heptadeca-1(16),3,6,13(17),14-pentaene]
≤ 100	Cc1c2c(nn1C1CN(C3CCCOC3)C1)OC[C@@H](F)[C@@H](C)Nc1nc(ncc1Cl)N2 (stereo partly drawn) [E390, (10S, 11R)-14-Chloro-10-fluoro-4,11-dimethyl-5-[1-(oxan-3-yl)azetidin-3-yl]-8-oxa-2,5,6,12,16,17-hexaazatricyclo [11.3.1.0^3,7]heptadeca-1(16)53,6,13(17),14-pentaene]
